# Results: patent US6569893B2, “Amino acid derivatives of triptolide compounds as immune modulators and anticancer agents” (Pharmagenesis, Inc., priority 2001, dated 2003)
# Key:
# [1] = tested on: Jurkat human T lymphocyte cell line; experiment: Terminal deoxynucleotidyl transferase (TdT, TUNEL) apoptosis assay after incubation of compound with human serum; type: cell-based; conditions: for EC50: Jurkat cells, 24 h, compound pre-incubated 48 hr at 37° C. in pooled human serum, concentration inducing 50% apoptosis, read-out: ED50 (nM) after 48 hr incubation with human serum; for Conversion (relative activity compared to PG490) (%): percent of ED50 relative to triptolide incubated in parallel in human serum (taken as 100%)
# Protocol: (§1) Several compounds of formula I were prepared, as described in the Examples. In preliminary assays, the compounds were evaluated for their capacity to induce apoptosis in cells from the Jurkat human T lymphocyte cell line, after incubation with pooled human serum for 48 hrs at 37° C. (see Example 7). One of the compounds was also analyzed for its capacity to inhibit IL-2 production in Jurkat human T lymphocyte cells (see Example 8). Controls consisted of the compounds incubated in complete tissue culture medium (RPMI 1640 medium plus 5% heat-inactivated fetal calf serum, 1% HEPES, 1% pen/strep, 1% glutamine) rather than human serum.
# (§2) The ED50/IC50 values (column 3) are calculated directly from the data in each experiment, and the % conversion values (column 4) are calculated as percent of the ED50 or IC50 value produced by triptolide, incubated in the same plasma (i.e. in the same experiment).
# Pooled human serum was stored in aliquots at −80° C. Test compounds were added at 20 mM to thawed human serum in 1.5 ml microfuge tubes and incubated at 37° C. in a water bath for 48 hours. The test samples were placed on ice until dilution for the bioassay. Controls consisted of the compounds incubated in complete tissue culture medium (RPMI 1640 medium plus 5% heat-inactivated fetal calf serum, 1% HEPES, 1% pen/strep, 1% glutamine) rather than human serum.
# Test samples were diluted to 1 mM in complete tissue culture medium. Aliquots were placed in microculture plates and serial dilutions were prepared so that the final concentration would encompass the range of 2 to 6,000 nM with half-log increments. Cells from an exponentially expanding culture of the Jurkat human T lymphocyte cell line (#TIB-152 obtained from American Type Culture Collection, Manassas, Va.) were harvested, washed once by centrifugation and dilution in complete tissue culture medium, and diluted to a concentration of 1×10^6 cells/ml. A volume of 100 μl of Jurkat cells (1×10^5 cells) was added to wells containing 100 μl of the diluted compounds, and the plates were incubated at 37° C. in a 5% CO2 incubator. After 24 hours, the plates were centrifuged to pellet the cells, and the cells were washed with PBS. The cells were fixed in paraformaldehyde, washed, treated with ethanol, washed and then incubated with the enzyme terminal deoxynucleotidyl transferase (TdT) and fluorescein labeled-deoxyuridine (dUTP). The process allows 3′ end labeling of DNA molecules which were nicked during the DNA fragmentation phase of apoptosis (terminal deoxynucleotidyl transferase dUTP nick end labeling; TUNEL labeling). The cells were washed, treated with ribonuclease, washed and resuspended in medium containing propidium iodide to distinguish intact apoptotic cells. The contents of the assay wells were individually transferred into test tubes, and apoptosis was analyzed using a FACSCalibur flow cytometer (BD Immunocytometry Systems, San Jose, Calif.). Cells positive for Fl-dUTP were considered to be apoptotic, and the data were calculated as percent apoptotic cells.
# For the assays in sections B and C, data were plotted as the concentration of compound incubated in serum versus percent apoptotic cells, and the concentration of compound inducing 50% apoptosis (ED50) was calculated from these dose response curves. The percent conversion of the test compounds to bioactive compound (assumed to be triptolide) was calculated in reference to the result with triptolide incubated in parallel in human serum in the same experiment, as the percent of the ED50 of the compound compared to that for triptolide, which was taken as 100%.
# [2] = tested on: HT-29 human colon cancer cell line tumor xenografts; conditions: HT-29 xenografts, cited from earlier work
# [3] = tested on: Jurkat human T lymphocyte cell line; experiment: Annexin V apoptosis assay after incubation of compound with human serum; type: cell-based
# Protocol: as §1, §2
# (§3) Pooled human serum was stored in aliquots at −80° C. […]
# Test samples (incubated in human serum as described in section A) were prepared and diluted as described in section B, and Jurkat human T lymphocyte cells were prepared and added to wells containing 100 μl of the diluted compounds, also as described in section B. The plates were incubated at 37° C. in a 5% CO2 incubator. […] Cells positive for Annexin V binding were considered to be apoptotic, and the data were calculated as percent apoptotic cells. […]
# [4] = tested on: IL-2 production in Jurkat human T lymphocyte cells; experiment: IL-2 production (inhibition) assay after incubation of compound with human serum; type: cell-based
# Protocol: as §1, §2, §3
# Test samples, incubated in human serum as described in Example 7A, were diluted to 1 mM in complete tissue culture medium. […] The stored supernatants were analyzed for human IL-2 concentration using the Luminex 100 (Luminex Corporation, Austin, Tex.), Luminex microspheres coupled with anti-IL-2 capture antibody, and fluorochrome-coupled anti-IL-2 detection antibody. The data were expressed as ng/ml of IL-2. […]
structure (smiles),measurement,setting,value
"CC(C)[C@]12O[C@H]1[C@@H]1O[C@]13[C@]1(O[C@H]1C[C@H]1C4=C(CC[C@@]13C)C(=O)OC4)[C@@H]2OC(=O)CC[C@@H](NC(=O)OCc1ccccc1)C(=O)OCc1ccccc1 [PG660, Triptolide 14-α-Benzyl-N-benzyloxycarbonyl-D-glutamate Ester]",EC50,"[1]; Homo sapiens, Jurkat",1100 nM
same,Conversion (relative activity compared to PG490) (%),[1],2.7%
"CC(C)[C@]12O[C@H]1[C@@H]1O[C@]13[C@]1(O[C@H]1C[C@H]1C4=C(CC[C@@]13C)C(=O)OC4)[C@@H]2OC(=O)C(CCC(=O)OCc1ccccc1)NC(=O)OCc1ccccc1 (mixture of isomers) [PG657, Triptolide 14-γ-Benzyl-N-benzyloxycarbonyl-(L)-glutamate Ester, mixture with D-isomer]",EC50,[1],300 nM
same,Conversion (relative activity compared to PG490) (%),[1],10%
"CC(C)[C@]12O[C@H]1[C@@H]1O[C@]13[C@]1(O[C@H]1C[C@H]1C4=C(CC[C@@]13C)C(=O)OC4)[C@@H]2OC(=O)CC[C@H](NC(=O)OC(C)(C)C)C(=O)OC(C)(C)C [PG658, Triptolide 14-N-t-Butoxycarbonyl-α-t-butyl-L-glutamate Ester]",EC50,"[1]; Homo sapiens, Jurkat",750 nM
same,Conversion (relative activity compared to PG490) (%),[1],4.0%
CC(C)C12OC1C1OC13C1(C)CCC4=C(COC4=O)C1CC1OC13C2OC(=O)CCC(=O)O (stereo not drawn) [14-succinate derivative of triptolide],Tumor regression,[2],induced tumor regression
same,Tumor growth inhibition,[2]; in comparison to 5-FU and CPT-11,"strongly inhibited tumor growth, to a significantly greater degree than 5-FU and CPT-11"
"CC(C)[C@]12O[C@H]1[C@@H]1O[C@]13[C@]1(O[C@H]1C[C@H]1C4=C(CC[C@@]13C)C(=O)OC4)[C@@H]2OC(=O)CC[C@H](N)C(=O)O [PG661, 14-γ-L-glutamate Ester of Triptolide]",EC50,"[3]; Jurkat cells, 24 h, compound pre-incubated 48 hr at 37° C. in pooled human serum, read-out: ED50 (nM) after 48 hr incubation with human serum",34700 nM
same,Conversion (relative activity compared to PG490) (%),[3]; percent of ED50 relative to triptolide incubated in parallel in human serum (taken as 100%),0.16%
same,Conversion (relative activity compared to PG490) (%),"[4]; IL-2 inhibition assay, percent of IC50 relative to triptolide incubated in parallel (taken as 100%)",1.4%
same,IC50,"[4]; IL-2 inhibition, anti-CD3/PMA-stimulated Jurkat cells, 24 h, compound pre-incubated 48 hr in human serum, 50% decrease in IL-2 concentration",330 nM
